Test results from patent US11730712B2, “Functionalized long-chain hydrocarbon mono- and di-carboxylic acids and derivatives thereof, and their use for the prevention or treatment of disease” (ESPERVITA THERAPEUTICS, INC., priority 2021, dated 2023).

Tested on: liver fibrosis gene panel (770 genes)
Test: Nanostring nCounter Fibrosis panel gene expression in liver of DEN-injected mice
Format: in vivo, mouse
Procedure: Nanostring Analysis. RNA was extracted from paired liver and tumor tissue from vehicle, Compound I-1 (100 mg/kg) and Compound I-32 (100 mg/kg) treated mice using an RNeasy kit (Qiagen, Calif., USA) as per manufacturer's protocol. All RNA samples passed the BioAnalyzer quality control test. The expression of target genes in liver and tumor were analyzed using the nCounter Fibrosis and Cancer Panel (NanoString Technologies, Inc., WA, USA), respectively according to manufacturer's protocol at the McMaster Genomics Facility. Technical and biological normalization against global geometric mean was performed in nSolver 4.0 software (NanoString Technologies). Technical normalization was performed in the nSolver software (version 4.0.70) by normalizing sample target raw counts to the geometric mean of positive control spike-ins. Biological normalization was performed by normalizing sample target raw counts to the geometric mean of selected housekeeping genes (Ppia, Nubp1, Nol7, Armh3, Rplp0, Cnot10, Pgk1, and Acad9). Pathway scores were calculated as the first principal component of the normalized expression values for all genes in each pathway and samples were compiled according to experimental groups to determine average pathway scores. Statistical significance was calculated between experimental groups using multiple t-tests and p-values were corrected for multiple comparisons using Benjamin-Hochberg false discovery rate.
Molecular analysis. To identify the pathways modulated in the liver and tumor tissue, nanostring analysis of fibrosis and cancer, pathways, respectively were completed in an n=8 mice treated with vehicle or Compound I-32 or Compound I-1 at 100 mg/kg.

CC(C)(CCCCc1cccc(CCCCC(C)(C)C(=O)O)c1)C(=O)O [Compound I-32, 6-[3-(5-carboxy-5-methylhexyl)-phenyl]-2,2-dimethylhexanoic acid]
number of genes downregulated (100 mg/kg, 4 weeks): 159
number of genes upregulated (100 mg/kg, 4 weeks): 71
number of genes with altered expression relative to vehicle controls (770 genes measured) (100 mg/kg, 4 weeks): 231
Adh1 Log2FC (NM_007409, 100 mg/kg, vs vehicle): 0.536
Aldh3a2 Log2FC (NM_007437, 100 mg/kg, vs vehicle): 0.869
Prdx6 Log2FC (NM_007453, 100 mg/kg, vs vehicle): −0.595
Apoa4 Log2FC (NM_007468, 100 mg/kg, vs vehicle): −3.4
Atp6v1e1 Log2FC (NM_007510, 100 mg/kg, vs vehicle): 0.153
Casp7 Log2FC (NM_007611, 100 mg/kg, vs vehicle): −0.31
Cd36 Log2FC (NM_007643, 100 mg/kg, vs vehicle): 1.02
Cdh2 Log2FC (NM_007664, 100 mg/kg, vs vehicle): −0.165
Cebpa Log2FC (NM_007678, 100 mg/kg, vs vehicle): −0.413
Cfi Log2FC (NM_007686, 100 mg/kg, vs vehicle): −0.395
Chil1 Log2FC (NM_007695, 100 mg/kg, vs vehicle): 2.58
Col1a2 Log2FC (NM_007743, 100 mg/kg, vs vehicle): −0.588
Cox6a1 Log2FC (NM_007748, 100 mg/kg, vs vehicle): 0.336
Cox7c Log2FC (NM_007749, 100 mg/kg, vs vehicle): 0.459
Crp Log2FC (NM_007768, 100 mg/kg, vs vehicle): −0.857
Ctsb Log2FC (NM_007798, 100 mg/kg, vs vehicle): −0.216
Cybb Log2FC (NM_007807, 100 mg/kg, vs vehicle): −0.644
Cyp2c29 Log2FC (NM_007815, 100 mg/kg, vs vehicle): −0.646
Cyp7a1 Log2FC (NM_007824, 100 mg/kg, vs vehicle): −1.38
Diaph1 Log2FC (NM_007858, 100 mg/kg, vs vehicle): −0.265
Ephx2 Log2FC (NM_007940, 100 mg/kg, vs vehicle): 0.562
F5 Log2FC (NM_007976, 100 mg/kg, vs vehicle): −0.29
Fas Log2FC (NM_007987, 100 mg/kg, vs vehicle): 0.226
Fasn Log2FC (NM_007988, 100 mg/kg, vs vehicle): 1.09
Slc37a4 Log2FC (NM_008063, 100 mg/kg, vs vehicle): −0.843
Gas1 Log2FC (NM_008086, 100 mg/kg, vs vehicle): −0.696
Gpc4 Log2FC (NM_008150, 100 mg/kg, vs vehicle): −0.381
Hadh Log2FC (NM_008212, 100 mg/kg, vs vehicle): 0.258
Hsd11b1 Log2FC (NM_008288, 100 mg/kg, vs vehicle): −1.23
Hsd17b4 Log2FC (NM_008292, 100 mg/kg, vs vehicle): 0.446
Irf8 Log2FC (NM_008320, 100 mg/kg, vs vehicle): −0.357
Il10ra Log2FC (NM_008348, 100 mg/kg, vs vehicle): −0.578
Itch Log2FC (NM_008395, 100 mg/kg, vs vehicle): −0.295
Kikb1 Log2FC (NM_008455, 100 mg/kg, vs vehicle): −0.217
Lpl Log2FC (NM_008509, 100 mg/kg, vs vehicle): 1.8
Lrp1 Log2FC (NM_008512, 100 mg/kg, vs vehicle): −0.376
Cd180 Log2FC (NM_008533, 100 mg/kg, vs vehicle): −0.606
Masp1 Log2FC (NM_008555, 100 mg/kg, vs vehicle): −0.26
Anapc1 Log2FC (NM_008569, 100 mg/kg, vs vehicle): −0.316
Mmp12 Log2FC (NM_008605, 100 mg/kg, vs vehicle): −2.05
Mmp14 Log2FC (NM_008608, 100 mg/kg, vs vehicle): −0.465
Nedd8 Log2FC (NM_008683, 100 mg/kg, vs vehicle): 0.0875
Pcx Log2FC (NM_008797, 100 mg/kg, vs vehicle): −0.521
Plcb3 Log2FC (NM_008874, 100 mg/kg, vs vehicle): −0.297
Plg Log2FC (NM_008877, 100 mg/kg, vs vehicle): −0.296
Ppm1a Log2FC (NM_008910, 100 mg/kg, vs vehicle): 0.136
Map2k1 Log2FC (NM_008927, 100 mg/kg, vs vehicle): −0.177
Saa1/2 Log2FC (NM_009117, 100 mg/kg, vs vehicle): −1.96
Scd1 Log2FC (NM_009127, 100 mg/kg, vs vehicle): 0.602
Scd2 Log2FC (NM_009128, 100 mg/kg, vs vehicle): 0.949
Sorbs1 Log2FC (NM_009166, 100 mg/kg, vs vehicle): −0.302
Sem1 Log2FC (NM_009169, 100 mg/kg, vs vehicle): 0.298
Ssr4 Log2FC (NM_009279, 100 mg/kg, vs vehicle): −0.228
Tgfbr1 Log2FC (NM_009370, 100 mg/kg, vs vehicle): −0.309
Traf2 Log2FC (NM_009422, 100 mg/kg, vs vehicle): −0.346
Tnfsf10 Log2FC (NM_009425, 100 mg/kg, vs vehicle): −0.692
Axl Log2FC (NM_009465, 100 mg/kg, vs vehicle): −0.418
Ap1g1 Log2FC (NM_009677, 100 mg/kg, vs vehicle): −0.189
Apoa1 Log2FC (NM_009692, 100 mg/kg, vs vehicle): −0.481
Apob Log2FC (NM_009693, 100 mg/kg, vs vehicle): −0.227
Bcl2l1 Log2FC (NM_009743, 100 mg/kg, vs vehicle): −0.248
Serping1 Log2FC (NM_009776, 100 mg/kg, vs vehicle): −0.66
C3ar1 Log2FC (NM_009779, 100 mg/kg, vs vehicle): −0.825
Calm1 Log2FC (NM_009790, 100 mg/kg, vs vehicle): −0.327
Casp3 Log2FC (NM_009810, 100 mg/kg, vs vehicle): −0.237
Serpinh1 Log2FC (NM_009825, 100 mg/kg, vs vehicle): −0.531
Cdk4 Log2FC (NM_009870, 100 mg/kg, vs vehicle): 0.181
Cfh Log2FC (NM_009888, 100 mg/kg, vs vehicle): −1.41
Col3a1 Log2FC (NM_009930, 100 mg/kg, vs vehicle): −0.679
Csnk2b Log2FC (NM_009975, 100 mg/kg, vs vehicle): 0.0913
Ctsd Log2FC (NM_009983, 100 mg/kg, vs vehicle): 0.331
Cyp4a10/31/32 Log2FC (NM_010011, 100 mg/kg, vs vehicle): 2.88
Fcer1g Log2FC (NM_010185, 100 mg/kg, vs vehicle): −0.427
Fn1 Log2FC (NM_010233, 100 mg/kg, vs vehicle): −0.584
Got2 Log2FC (NM_010325, 100 mg/kg, vs vehicle): 0.156
H2-Aa Log2FC (NM_010378, 100 mg/kg, vs vehicle): −0.4
H2-D1 Log2FC (NM_010380, 100 mg/kg, vs vehicle): −0.175
H2-T23 Log2FC (NM_010398, 100 mg/kg, vs vehicle): −0.224
Hck Log2FC (NM_010407, 100 mg/kg, vs vehicle): −0.667
Hif1a Log2FC (NM_010431, 100 mg/kg, vs vehicle): 0.283
Hmox1 Log2FC (NM_010442, 100 mg/kg, vs vehicle): −0.484
Hsp90aa1 Log2FC (NM_010480, 100 mg/kg, vs vehicle): 0.361
Icam1 Log2FC (NM_010493, 100 mg/kg, vs vehicle): −0.382
Ikbkb Log2FC (NM_010546, 100 mg/kg, vs vehicle): −0.526
II6st Log2FC (NM_010560, 100 mg/kg, vs vehicle): −0.296
Ilk Log2FC (NM_010562, 100 mg/kg, vs vehicle): −0.109
Itgb1 Log2FC (NM_010578, 100 mg/kg, vs vehicle): 0.143
Fabp5 Log2FC (NM_010634, 100 mg/kg, vs vehicle): 1.44
Lepr Log2FC (NM_010704, 100 mg/kg, vs vehicle): 0.604
Psmb8 Log2FC (NM_010724, 100 mg/kg, vs vehicle): −0.801
Lyn Log2FC (NM_010747, 100 mg/kg, vs vehicle): −0.295
Marco Log2FC (NM_010766, 100 mg/kg, vs vehicle): −1.54
P4hb Log2FC (NM_011032, 100 mg/kg, vs vehicle): −0.765
Pck1 Log2FC (NM_011044, 100 mg/kg, vs vehicle): −1.99
Pitp Log2FC (NM_011125, 100 mg/kg, vs vehicle): 1.37
Pparg Log2FC (NM_011146, 100 mg/kg, vs vehicle): −0.592
Prkdc Log2FC (NM_011159, 100 mg/kg, vs vehicle): −0.525
Pros1 Log2FC (NM_011173, 100 mg/kg, vs vehicle): −0.208
Lgmn Log2FC (NM_011175, 100 mg/kg, vs vehicle): −0.601
Ptprc Log2FC (NM_011210, 100 mg/kg, vs vehicle): −0.47
S100a4 Log2FC (NM_011311, 100 mg/kg, vs vehicle): −0.79
Serpinf1 Log2FC (NM_011340, 100 mg/kg, vs vehicle): −0.208
Sod1 Log2FC (NM_011434, 100 mg/kg, vs vehicle): 0.284
Srebf1 Log2FC (NM_011480, 100 mg/kg, vs vehicle): −0.634
Thbs2 Log2FC (NM_011581, 100 mg/kg, vs vehicle): −1.01
Timp2 Log2FC (NM_011594, 100 mg/kg, vs vehicle): −0.451
Tjp2 Log2FC (NM_011597, 100 mg/kg, vs vehicle): 0.199
Tln1 Log2FC (NM_011602, 100 mg/kg, vs vehicle): −0.355
Vegfb Log2FC (NM_011697, 100 mg/kg, vs vehicle): 0.521
Adh4 Log2FC (NM_011996, 100 mg/kg, vs vehicle): −0.855
Bcap31 Log2FC (NM_012060, 100 mg/kg, vs vehicle): −0.145
C9 Log2FC (NM_013485, 100 mg/kg, vs vehicle): −1.25
